The test system of one data set is Murine Splenocytes. The data set is described as follows: Cytotoxicity on uninfected ex vivo explants. The class given is cell-based, mouse. The settings on record: for SIS Selectivity Index (mouse splenocytes): CC50 non-infected mouse splenocytes / EC50 amastigotes; for CC50: read-out: CC50 Murine Splenocytes, CC50 ± SD, uninfected splenocytes, 48 h.
Another data set deals with Human HepG2. The data set is described as follows: Cytotoxicity on HepG2 cells. The class given is cell-based. To be noted: for CC50: read-out: CC50 Human HepG2, CC50 ± SD, 48 h; for SIh Selectivity Index (human HepG2): CC50 HepG2 / EC50 amastigotes.
For data set [1], the system named is L. infantum promastigotes. The data set is described as follows: Promastigote in vitro assay. The settings on record: Leishmania infantum, read-out: EC50 L. infantum promastigotes. The class given is cell-based.
Data set [2] can be described thus: Cytotoxicity on uninfected ex vivo explants. To be noted: mouse, uninfected ex vivo splenic explants (murine splenocytes). The class given is cell-based, mouse.
Data set [3] in a line: Cytotoxicity on HepG2 cells. It counts as cell-based, human. To be noted: human, HepG2 cells (ATCC HB-8065).
For a further data set, the target named is Leishmania tubulin (Leishmania infantum, UniProt A0A381MCS3+A4HTR0). The data set is described as follows: Tubulin polymerization assay. The class given is biochemical, L. infantum.
Leishmania tubulin, sequence (A4HTR0 1-443): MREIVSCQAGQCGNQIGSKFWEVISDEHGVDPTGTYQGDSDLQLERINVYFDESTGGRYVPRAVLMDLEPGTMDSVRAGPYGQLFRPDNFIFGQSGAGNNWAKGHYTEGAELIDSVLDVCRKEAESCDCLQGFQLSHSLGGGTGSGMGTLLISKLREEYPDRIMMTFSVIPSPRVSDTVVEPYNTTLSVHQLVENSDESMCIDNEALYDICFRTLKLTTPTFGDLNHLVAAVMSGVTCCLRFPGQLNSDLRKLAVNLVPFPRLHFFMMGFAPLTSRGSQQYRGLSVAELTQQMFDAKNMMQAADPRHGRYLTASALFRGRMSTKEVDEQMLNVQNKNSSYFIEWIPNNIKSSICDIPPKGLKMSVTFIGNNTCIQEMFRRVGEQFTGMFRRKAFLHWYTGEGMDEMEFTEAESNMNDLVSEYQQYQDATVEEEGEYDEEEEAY
Leishmania tubulin, sequence (A0A381MCS3 1-451): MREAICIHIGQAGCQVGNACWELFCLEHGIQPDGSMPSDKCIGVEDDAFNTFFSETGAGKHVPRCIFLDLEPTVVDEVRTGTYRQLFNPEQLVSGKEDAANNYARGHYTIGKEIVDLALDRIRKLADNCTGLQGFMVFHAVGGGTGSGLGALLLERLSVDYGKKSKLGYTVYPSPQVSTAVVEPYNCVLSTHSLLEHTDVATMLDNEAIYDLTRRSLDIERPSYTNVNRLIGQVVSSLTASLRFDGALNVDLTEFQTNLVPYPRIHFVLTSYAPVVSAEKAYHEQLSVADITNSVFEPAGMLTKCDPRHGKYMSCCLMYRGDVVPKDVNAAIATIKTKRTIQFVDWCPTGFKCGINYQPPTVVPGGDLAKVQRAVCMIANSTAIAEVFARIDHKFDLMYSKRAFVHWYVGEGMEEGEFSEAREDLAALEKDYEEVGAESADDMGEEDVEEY

The structures appear in SMILES notation. Where only a bound is given, the exact number is not on record here.

In the case of `COc1cc([C@@H]2c3cc4c(cc3C[C@H]3COC(=O)[C@@H]32)OCO4)cc(OC)c1OC` [Compound 1, deoxypodophyllotoxin], the “SIS Selectivity Index (mouse splenocytes)” value (“SIS Selectivity Index” for short) in the data set with Murine Splenocytes is listed as below 1.0. Moreover, the CC50 is 98.6 ± 3.1 µM with Murine Splenocytes and above 100 µM with Human HepG2.
For `COc1cc([C@@H]2c3cc4c(cc3[C@H](O)[C@H]3COC(=O)[C@H]23)OCO4)cc(OC)c1OC` [Compound 2a, podophyllotoxin], the EC50 in data set [1] was above 100 µM. The CC50 at 48 h in data set [2] is above 100 µM; in data set [3], 0.7 µM. Moreover, in the data set with Murine Splenocytes, the “SIS Selectivity Index” value is listed as above 7.4. Further, in the data set on Human HepG2, the “SIh Selectivity Index (human HepG2)” value is on record as 0.1. Further, the “IC50 Leishmania tubulin polymerization inhibition” value at Leishmania tubulin (IC50 ± SD, 1.2 mg/mL tubulin, 37 °C) is on record as “under the μM level”.
As to `COc1cc([C@@H]2c3cc4c(cc3[C@@H](O)[C@H]3COC(=O)[C@H]23)OCO4)cc(OC)c1OC` [Compound 2b, epipodophyllotoxin], the 50% effective concentration (EC50) in data set [1] is above 100 µM. Besides, the CC50 at 48 h in data set [2] was above 100 µM; in data set [3], 30.6 ± 2.1 µM. The “SIh Selectivity Index (human HepG2)” value in the data set on Human HepG2 is given as below 0.3.
For `COc1cc([C@@H]2c3cc4c(cc3C(=O)[C@H]3COC(=O)[C@H]23)OCO4)cc(OC)c1OC` [Compound 3, podophyllotoxone], in the data set with Murine Splenocytes, the “SIS Selectivity Index” value is reported as below 0.6 and the CC50 amounted to 60.6 ± 7.7 µM. For the same molecule, in the data set with Human HepG2, the “SIh Selectivity Index (human HepG2)” value is reported as below 0.1 and the CC50 is 10.3 ± 0.9 µM.
Turning to `COC(=O)[C@@H]1C(C=O)=Cc2cc3c(cc2[C@H]1c1cc(OC)c(OC)c(OC)c1)OCO3` [Compound 14, podophyllic aldehyde], in data set [1], the EC50 was determined as 89.5 ± 4.3 µM. For the same molecule, the CC50 at 48 h in data set [2] (BALB/c) and in data set [3] was above 100 µM in each case. Besides, the “SIS Selectivity Index” value in the data set on Murine Splenocytes is above 10.8. Also, the “SIh Selectivity Index (human HepG2)” value in the data set with Human HepG2 was above 10.8.
Take `CCCCCCCCCCCCCCCCOP(=O)([O-])OCC[N+](C)(C)C` [Miltefosine, miltefosine, reference compound]: the EC50 in data set [1] turned out to be 5.9 ± 1.4 µM. Moreover, the figures for the CC50 at 48 h in data set [2] and in data set [3] were 64.7 ± 7 µM and 50.4 ± 4.3 µM, respectively. Moreover, the “SIS Selectivity Index” value in the data set on Murine Splenocytes turned out to be 26.9. For the same molecule, the “SIh Selectivity Index (human HepG2)” value with Human HepG2 is listed as 21.
As to `CC[C@]1(O)C[C@@H]2CN(CCc3c([nH]c4ccccc34)[C@@](C(=O)OC)(c3cc4c(cc3OC)N(C)[C@H]3[C@@](O)(C(=O)OC)[C@H](OC(C)=O)[C@]5(CC)C=CCN6CC[C@]43[C@@H]65)C2)C1` [Vinblastine, reference compound], at Leishmania tubulin (25 μM, positive control), the “Inhibition of tubulin polymerization” value is listed as “inhibits completely”.
